One data set concerns GT1-7. Nature of the data set: Antiprion activity in human transmissible spongiform encephalopathies agent Fukuoka-1 prion infected GT1-7 cells assessed as proteinase K-resistant proteins at 10 uM after 3 days Western blotting analysis relative to control. Format: cell-based. (Immunoblotting shows a protein as a band on a membrane.)
Data set [1] in a line: Antiprion activity in human transmissible spongiform encephalopathies agent Fukuoka-1 prion infected GT1-7 cells assessed as proteinase K-resistant proteins after 3 days Western blotting analysis. Format: cell-based. To be noted: GT1-7, 72 h.
The species entered for data set [2] is Mus musculus. Briefly: Binding affinity to mouse PrPC by surface plasmon resonance. A general note: SPR reads the build-up and loss of mass on a sensor chip optically.
For data set [3], the species on record is Mus musculus. Nature of the data set: Effect on PrPc expression level in mouse GT1-7 at 10 uM after 3 days by Western blot method.
The species named for data set [4] is Mus musculus. Nature of the data set: Effect on PrPc expression level in mouse GT1-7 at 2 uM after 3 days by Western blot method.
The nature of data set [5]: Cytotoxicity against mouse GT1-7 cells at 2 uM. The format is cell-based. The note with it: gt1-7, 2 µM.

A word on the IC50: it is the concentration at which inhibition is half-maximal.

Calls of active or inactive are those of the source. The rule behind the calls is not given here.

As for `O=C(CN1CCCC1)Nc1ccc(Cc2ccc(NC(=O)CN3CCCC3)cc2)cc1`, the Activity in the data set with GT1-7 came to 25%. In data set [1], the half-inhibitory concentration (IC50) was 1400 nM. For the same molecule, the RU in the data set listed under Mus musculus [2] is 15. Take `O=C(CN1CCCC1)Nc1ccc(Cc2ccc(NC(=O)CN3CC[C@H](O)C3)cc2)cc1`: the Activity in the data set with GT1-7 turned out to be 47%. Regarding `COc1ccccc1C(c1ccc(NC(=O)CN2CCCC2)cc1)c1ccc(NC(=O)CN2CCCC2)cc1`, the IC50 in data set [1] came to 580 nM. On to `Cc1cc(Cc2cc(C)c(NC(=O)CN3CCCC3)c(C)c2)cc(C)c1NC(=O)CN1CCCC1`, for which the Activity in the data set on GT1-7 is 22%. Further, the outcome in the data set listed under Mus musculus [3] was inactive. In the same order, the values of `O=C(CN1CCCC1)Nc1cccc(Cc2cccc(NC(=O)CN3CCCC3)c2)c1` are 20% and “inactive”. Consider `O=C(CN1CCCC1)Nc1ccc(NC(=O)CN2CCCC2)cc1`, for which the Activity in the data set on GT1-7 was 88%.

Regarding `CC(c1ccccc1)(c1ccc(NC(=O)CN2CCCC2)cc1)c1ccc(NC(=O)CN2CCCC2)cc1`, the IC50 in data set [1] is 660 nM. In the case of `O=C(CN1CCCCCC1)Nc1ccc(Cc2ccc(NC(=O)CN3CCCCCC3)cc2)cc1`, the Activity in the data set with GT1-7 worked out at 29%. Besides, in the data set listed under Mus musculus [3], the result was inactive. Regarding `COC(=O)[C@@H]1CCCN1CC(=O)Nc1ccc(Cc2ccc(NC(=O)CN3CCC[C@H]3C(=O)OC)cc2)cc1`, the Activity in the data set with GT1-7 is 61%.

Regarding `c1cc(NCCN2CCCC2)ccc1Cc1ccc(NCCN2CCCC2)cc1`, the Activity with GT1-7 is 28%. For the molecule `CC(C)(C)C(c1ccc(NC(=O)CN2CCCC2)cc1)c1ccc(NC(=O)CN2CCCC2)cc1`, the outcome in the data set filed under Mus musculus [4] was inactive. Besides, the IC50 in data set [1] came to 790 nM. On to `O=C(CN1CC[C@@H](O)C1)Nc1ccc(Cc2ccc(NC(=O)CN3CC[C@@H](O)C3)cc2)cc1`, for which the Activity in the data set on GT1-7 is 108%.

As to `O=C(CN1CCCC1)Nc1ccc(CCc2ccc(NC(=O)CN3CCCC3)cc2)cc1`, the Activity in the data set on GT1-7 worked out at 40%. Regarding `O=C(CN1CCCC1)Nc1ccc(C(=O)c2ccc(NC(=O)CN3CCCC3)cc2)cc1`, the Activity in the data set on GT1-7 was found to be 24%. For the same molecule, the result in the data set filed under Mus musculus [3] was inactive.

As to `O=C(CN1CCCCC1)Nc1ccc(Cc2ccc(NC(=O)CN3CCCCC3)cc2)cc1`, the Activity with GT1-7 stood at 24%. Besides, the result in the data set filed under Mus musculus [3] was inactive.

For `CC(C)(C(=O)Nc1ccc(Cc2ccc(NC(=O)C(C)(C)N3CCCC3)cc2)cc1)N1CCCC1`, the Activity in the data set on GT1-7 was 45%. As for `Nc1ccccc1Sc1nc(N)c(N)c(-c2ccco2)c1N`, the outcome in the data set with GT1-7 was inactive. `O=C(CN1CCCC1)Nc1ccc(Cc2ccc(NC(=O)CN3CC[C@@H](O)C3)cc2)cc1`: the Activity in the data set with GT1-7 was 43%.

`O=C(CN1CCOCC1)Nc1ccc(Cc2ccc(NC(=O)CN3CCOCC3)cc2)cc1`: the Activity with GT1-7 worked out at 93%. With `O=C(CN1C(=O)CCC1=O)Nc1ccc(Cc2ccc(NC(=O)CN3C(=O)CCC3=O)cc2)cc1`, the Activity in the data set on GT1-7 was determined as 90%. Take `NCC(=O)Nc1ccc(Cc2ccc(NC(=O)CN)cc2)cc1`: the Activity in the data set with GT1-7 came out at 102%. `O=C(CN1CC[C@@H](F)C1)Nc1ccc(Cc2ccc(NC(=O)CN3CC[C@@H](F)C3)cc2)cc1`: the Activity in the data set with GT1-7 came out at 93%.

Consider `O=C(CN1CCCCC1)Nc1ccc(Cc2ccc(NC(=O)CN3CCCC3)cc2)cc1`, for which, in the data set with GT1-7, the Activity came out at 29%. Moreover, in the data set listed under Mus musculus [3], the result was inactive. In the same order, the values of `O=C(CN1CCCC1)Nc1ccc(Cc2ccc(NC(=O)CN3CCC[C@H]3CO)cc2)cc1` are 47% and “inactive”. In the case of `O=C(CN1CC[C@H](F)C1)Nc1ccc(Cc2ccc(NC(=O)CN3CC[C@H](F)C3)cc2)cc1`, in the data set with GT1-7, the Activity came out at 112%. `O=C(CN1CCCC1)Nc1ccc(Cc2ccc(NC(=O)CN3CCCC3)c(Cl)c2)cc1Cl`: the Activity in the data set with GT1-7 worked out at 38%. Turning to `O=C(CC1CCCC1)Nc1ccc(Cc2ccc(NC(=O)CC3CCCC3)cc2)cc1`, the Activity in the data set with GT1-7 amounted to 86%. Still for that read-out and setting: to `CC(=O)Nc1ccc(Cc2ccc(NC(C)=O)cc2)cc1` belongs 84%; to `O=C(Nc1ccc(Cc2ccc(NC(=O)c3ccccn3)cc2)cc1)c1ccccn1`, 122%; to `COc1cc(-c2ccc(NC(=O)CN3CCCC3)c(OC)c2)ccc1NC(=O)CN1CCCC1`, 42%. The same measure, in the same setting: to `CN(C(=O)CN1CCCC1)c1ccc(Cc2ccc(N(C)C(=O)CN3CCCC3)cc2)cc1` belongs 77%; to `CN(C)CC(=O)Nc1ccc(Cc2ccc(NC(=O)CN(C)C)cc2)cc1`, 58%. Turning to `CN(C)[C@H]1CCN(CC(=O)Nc2ccc(Cc3ccc(NC(=O)CN4CC[C@H](N(C)C)C4)cc3)cc2)C1`, in the data set on GT1-7, the Activity was 34%. Moreover, the outcome in the data set listed under Mus musculus [3] was inactive. For `O=C(CN1CCCC1)Nc1ccc2c(c1)Cc1cc(NC(=O)CN3CCCC3)ccc1-2`, the Activity in the data set on GT1-7 was 45%. As to `O=C(CN1CC[C@H](O)C1)Nc1ccc(Cc2ccc(NC(=O)CN3CC[C@H](O)C3)cc2)cc1`, the Activity in the data set on GT1-7 was determined as 90%. As for `O=C(CN1CCCC1)Nc1ccc(C(c2ccc(F)cc2)(c2ccc(NC(=O)CN3CCCC3)cc2)C(F)(F)F)cc1`, the outcome in the data set filed under Mus musculus [4] was inactive. The half-inhibitory concentration (IC50) in data set [1] came to 510 nM. Also, the Activity entry in data set [5] is “Non-toxic”. The RU in the data set filed under Mus musculus [2] is 32.

Consider `O=C(CN1CCCC1)Nc1ccc(C(c2ccc(NC(=O)CN3CCCC3)cc2)C2CCCCCC2)cc1`, for which, in the data set filed under Mus musculus [4], the result was inactive. Moreover, the IC50 in data set [1] amounted to 510 nM. For the same molecule, the Activity entry in data set [5] is given as “Non-toxic”. `CCCCNCC(=O)Nc1ccc(Cc2ccc(NC(=O)CNCCCC)cc2)cc1`: in the data set on GT1-7, the Activity is 24%. With `O=C(CNC1CCCC1)Nc1ccc(Cc2ccc(NC(=O)CNC3CCCC3)cc2)cc1`, the Activity in the data set with GT1-7 came out at 26%. With `O=C(CN1CCCC1)Nc1cccc2c(NC(=O)CN3CCCC3)cccc12`, the Activity in the data set with GT1-7 is 110%. Take `Nc1c(/N=N/c2ccc(-c3ccc(/N=N/c4cc(S(=O)(=O)O)c5ccccc5c4N)cc3)cc2)cc(S(=O)(=O)O)c2ccccc12` [CONGO RED]: the IC50 in data set [1] was found to be 5500 nM. On to `O=C(CN1CCCC1)Nc1ccc(S(=O)(=O)c2ccc(NC(=O)CN3CCCC3)cc2)cc1`, for which the Activity in the data set on GT1-7 came out at 17%. Further, the result in the data set filed under Mus musculus [3] was inactive. Taken in the same sequence, the figures for `O=C(CN1CCCC1)Nc1ccc(Cc2cccc(NC(=O)CN3CCCC3)c2)cc1` were 19% and “inactive”. `O=C(CN1CCCC1)Nc1ccc(Sc2ccc(NC(=O)CN3CCCC3)cc2)cc1`: in the data set with GT1-7, the Activity stood at 22%. In addition, the outcome in the data set filed under Mus musculus [3] was inactive. In the case of `O=C(CN1CCCC1)Nc1ccc(Cc2ccc(NC(=O)CN3CCOCC3)cc2)cc1`, the Activity with GT1-7 was 77%. Turning to `O=C(CN1CCCC1)Nc1ccc(Cc2ccc(NC(=O)CN3CCC[C@@H]3CO)cc2)cc1`, in the data set on GT1-7, the Activity came out at 44%. Further, the result in the data set filed under Mus musculus [3] was inactive.

On to `CCN(CC)CCCC(C)Nc1c2ccc(Cl)cc2nc2ccc(OC)cc12` (configuration not stated) [QUINACRINE], for which, in data set [1], the IC50 was found to be 1100 nM. For the molecule `CC(C)(c1ccc(NC(=O)CN2CCCC2)cc1)c1cccc(C(C)(C)c2ccc(NC(=O)CN3CCCC3)cc2)c1`, in data set [1], the IC50 turned out to be 830 nM. For the molecule `Nc1ccc(/N=N/c2ccccc2)c(N)c1`, the result in the data set on GT1-7 was inactive.

For `CCN(CC)CC(=O)Nc1ccc(Cc2ccc(NC(=O)CN(CC)CC)cc2)cc1`, the Activity in the data set with GT1-7 was determined as 23%. The result in the data set listed under Mus musculus [3] was inactive. Turning to `CC(=O)Nc1ccc(Cc2ccc(NC(=O)CN3CCCC3)cc2)cc1`, in the data set with GT1-7, the Activity came to 91%. In the case of `O=C(CN1CCCC1)Nc1ccc(Oc2ccc(NC(=O)CN3CCCC3)cc2)cc1`, in the data set with GT1-7, the Activity stood at 35%. With `COC(=O)[C@H]1CCCN1CC(=O)Nc1ccc(Cc2ccc(NC(=O)CN3CCC[C@@H]3C(=O)OC)cc2)cc1`, the Activity in the data set on GT1-7 stood at 112%. On to `O=C(CN1CCC[C@H]1C(F)(F)F)Nc1ccc(Cc2ccc(NC(=O)CN3CCC[C@H]3C(F)(F)F)cc2)cc1`, for which, in the data set with GT1-7, the Activity is 85%. Regarding `CC(C)(c1ccc(NC(=O)CN2CCCC2)cc1)c1ccc(C(C)(C)c2ccc(NC(=O)CN3CCCC3)cc2)cc1`, the IC50 in data set [1] is 690 nM. As for `O=C(Cn1cccn1)Nc1ccc(Cc2ccc(NC(=O)Cn3cccn3)cc2)cc1`, the Activity in the data set on GT1-7 turned out to be 106%. As for `Nc1ccc(Cc2ccc(NC(=O)CN3CCCC3)cc2)cc1`, the Activity with GT1-7 stood at 75%. For the molecule `O=C(Cn1ccnc1)Nc1ccc(Cc2ccc(NC(=O)Cn3ccnc3)cc2)cc1`, in the data set with GT1-7, the Activity was determined as 167%.

Consider `O=C(CN(C1CCCCC1)C1CCCCC1)Nc1ccc(Cc2ccc(NC(=O)CN(C3CCCCC3)C3CCCCC3)cc2)cc1`, for which the Activity in the data set with GT1-7 amounted to 106%.

For the molecule `O=C(Nc1ccc(Cc2ccc(NC(=O)[C@@H]3CCCN3)cc2)cc1)[C@@H]1CCCN1`, in the data set with GT1-7, the Activity came to 25%. In the case of `CN(C)[C@@H]1CCN(CC(=O)Nc2ccc(Cc3ccc(NC(=O)CN4CC[C@@H](N(C)C)C4)cc3)cc2)C1`, the Activity in the data set on GT1-7 was 31%. Further, the outcome in the data set listed under Mus musculus [3] was inactive. As to `O=C(CN1CCCC1)NCCc1ccc(NC(=O)CN2CCCC2)cc1`, the Activity in the data set on GT1-7 turned out to be 86%. Regarding `CC(C)N(CC(=O)Nc1ccc(Cc2ccc(NC(=O)CN(C(C)C)C(C)C)cc2)cc1)C(C)C`, the Activity in the data set on GT1-7 worked out at 20%. `O=C(CN1CCC[C@@H]1CO)Nc1ccc(Cc2ccc(NC(=O)CN3CCC[C@@H]3CO)cc2)cc1`: the Activity in the data set on GT1-7 came out at 75%.

`Nc1ccc(Cc2ccc(N)cc2)cc1`: in the data set on GT1-7, the Activity came out at 86%. On the same count and under the same terms, in the case of `O=C(CN1CCCC1)Nc1ccccc1NC(=O)CN1CCCC1` it was 82%; in that of `O=C(CN1CCC[C@H]1CO)Nc1ccc(Cc2ccc(NC(=O)CN3CCC[C@H]3CO)cc2)cc1`, 91%; in that of `CCCN(CCC)CC(=O)Nc1ccc(Cc2ccc(NC(=O)CN(CCC)CCC)cc2)cc1`, 48%. With `NCC(=O)Nc1ccc(Cc2ccc(NC(=O)CN3CCCC3)cc2)cc1`, the Activity in the data set on GT1-7 amounted to 62%.

As to `O=C(CN1CCCC1)Nc1ccc(C(O)c2ccc(NC(=O)CN3CCCC3)cc2)cc1`, in the data set with GT1-7, the Activity is 62%.

The values above are taken from ChEMBL document CHEMBL1681638, “Synthesis of GN8 derivatives and evaluation of their antiprion activity in TSE-infected cells” (Bioorg Med Chem Lett, 2011).
